Laboratory results from publication PMC6152277, “Synthesis and Evaluation of New Quinoxaline Derivatives of Dehydroabietic Acid as Potential Antitumor Agents” (Molecules : A Journal of Synthetic Chemistry and Natural …, 2017).

Key:
[1] = tested on: human hepatocarcinoma cell line (SMMC-7721); test: MTT cytotoxic assay, SMMC-7721; assay type: cell-based; settings: 48 h exposure
Protocol: (§1) All the compounds (1–3, 4a–o) were evaluated for their in vitro cytotoxic activity against three cancer cell lines including human breast cancer cell line (MCF-7), human hepatocarcinoma cell line (SMMC-7721), human cervical carcinoma cell line (HeLa), and a noncancerous human hepatocyte cell line (LO2) using the MTT assay method. An anticancer drug etoposide (VP-16) was co-assayed as the positive control. The results of the test compounds shown as IC50 values (concentration required to inhibit tumor cell proliferation by 50%), are listed in Table 1.
(§2) The in vitro cytotoxic activities of the quinoxaline derivatives of DAA were evaluated against a human breast cancer cell line (MCF-7), human hepatocarcinoma cell line (SMMC-7721), human cervical carcinoma cell line (HeLa) and noncancerous human hepatocyte cells (LO2) via the MTT colorimetric method. Briefly, different tumor cells were grown in DMEM supplemented with 10% fetal bovine serum, penicillin (100 U/mL), and streptomycin (50 μg/mL). Cells were harvested at the log phase of growth and seeded in 96-well plates (100 μL/well at a density of 2 × 10^5 cells/mL). After 24 h of incubation at 37 °C and 5% CO2 to allow for cell attachment, cultures were exposed to various concentrations of the isolated compounds for 48 h. Finally, the MTT solution (2.5 mg/mL in PBS) was added (40 μL/well). Plates were further incubated for 4 h at 37 °C, and the formazan crystals formed were dissolved by adding 150 μL/well of DMSO. Absorption at 570 nm was measured with an ELISA plate reader. The results were expressed as IC50 values with standard deviations, which were defined as the concentrations at which a 50% survival of the cells was discerned. Etoposide (VP-16) was co-assayed as the positive control.

[2] = tested on: human breast cancer cell line (MCF-7); test: MTT cytotoxic assay, MCF-7; assay type: cell-based; settings: MCF7, 48 h exposure
Protocol: as §1, §2

[3] = tested on: human cervical carcinoma cell line (HeLa); test: MTT cytotoxic assay, HeLa; assay type: cell-based; settings: 48 h exposure
Protocol: as §1, §2

[4] = tested on: noncancerous human hepatocyte cells (LO2); test: MTT cytotoxic assay, LO2; assay type: cell-based; settings: 48 h exposure, noncancerous hepatocytes
Protocol: as §1, §2

[5] = tested on: three cancer cell lines (MCF-7, SMMC-7721, HeLa); test: MTT cytotoxic assay, summary statements over the three cancer cell lines; assay type: cell-based, human; settings: for IC50: Homo sapiens, at least one of MCF-7, SMMC-7721, HeLa, strong cytotoxicity, read-out: IC50 against at least one cancer cell line; for cytotoxic activity against the three cancer cell lines (in words): MCF-7, SMMC-7721, HeLa
Protocol: as §1, §2

| SMILES | IC50 [1] | IC50 [2] | IC50 [3] | IC50 [4] | IC50 [5] | cytotoxic activity against the three cancer cell lines (in words) [5] | cytotoxicity to HeLa and/or SMMC-7721 cell lines (in words) [5] |
| --- | --- | --- | --- | --- | --- | --- | --- |
| CC(C)c1ccc2c(c1)CC[C@H]1[C@](C)(C(=O)O)CCC[C@]21C [Compound 1, Dehydroabietic acid] | > 50 µM | > 50 µM | > 50 µM | > 50 µM |  |  |  |
| COC(=O)[C@]1(C)CCC[C@]2(C)c3cc(Br)c4nc(CN5CCN(C)CC5)c(CN5CCN(C)CC5)nc4c3CCC12 (stereo partly shown) [Compound 4j, Methyl 12-bromo-2′,3′-bis((4-methylpiperazin-1-yl)methyl)-13,14-pyrazinyl-deisopropyl-dehydroabietate] | 8.03 ± 0.7 µM | 12.2 ± 0.75 µM | 6.62 ± 0.59 µM | 29.5 ± 3.61 µM | < 10 µM |  |  |
| CCCN(CCC)Cc1nc2c(Br)cc3c(c2nc1CN(CCC)CCC)CCC1[C@](C)(C(=O)OC)CCC[C@]31C (stereo partly shown) [Compound 4c, Methyl 12-bromo-2′,3′-bis((dipropylamino)methyl)-13,14-pyrazinyldeisopropyl-dehydroabietate] | 11 ± 0.58 µM | 21 ± 1.27 µM | 8.67 ± 0.65 µM | > 50 µM |  |  |  |
| COC(=O)[C@]1(C)CCC[C@]2(C)c3cc(Br)c4nc(Cn5cnnn5)c(Cn5cnnn5)nc4c3CCC12 (stereo partly shown) [Compound 4n, Methyl 12-bromo-2′,3′-bis((1H-tetrazol-1-yl)methyl)-13,14-pyrazinyl-deisopropyl-dehydroabietate] | 10.9 ± 1.68 µM | 15.8 ± 0.81 µM | 13.3 ± 2.71 µM | > 50 µM |  | moderate cytotoxic activity |  |
| COC(=O)[C@]1(C)CCC[C@]2(C)c3cc(Br)c4nc(Cn5ccnc5)c(Cn5ccnc5)nc4c3CCC12 (stereo partly shown) [Compound 4l, Methyl 12-bromo-2′,3′-bis((1H-imidazol-1-yl)methyl)-13,14-pyrazinyl-deisopropyl-dehydroabietate] | 15.3 ± 2.06 µM | 22.8 ± 3.21 µM | 12.7 ± 1.35 µM | > 50 µM |  | moderate cytotoxic activity |  |
| COC(=O)[C@]1(C)CCC[C@]2(C)c3cc(Br)c4nc(CN5CCCCC5)c(CN5CCCCC5)nc4c3CCC12 (stereo partly shown) [Compound 4f, Methyl 12-bromo-2′,3′-bis(piperidin-1-ylmethyl)-13,14-pyrazinyldeisopropyl-dehydroabietate] | 7.71 ± 0.82 µM | 8.95 ± 0.63 µM | 5.98 ± 0.37 µM | 42.2 ± 2.78 µM | < 10 µM |  |  |
| COC(=O)[C@]1(C)CCC[C@]2(C)c3cc(Br)c4nc(Cn5ncnn5)c(Cn5ncnn5)nc4c3CCC12 (stereo partly shown) [Compound 4o, Methyl 12-bromo-2′, 3′-bis((2H-tetrazol-2-yl)methyl)-13,14-pyrazinyl-deisopropyl-dehydroabietate] | 16.9 ± 1.95 µM | 24.4 ± 1.69 µM | 20.5 ± 3.12 µM | > 50 µM |  | moderate cytotoxic activity |  |
| CCCCN(CCCC)Cc1nc2c(Br)cc3c(c2nc1CN(CCCC)CCCC)CCC1[C@](C)(C(=O)OC)CCC[C@]31C (stereo partly shown) [Compound 4d, Methyl 12-bromo-2′,3′-bis((dibutylamino)methyl)-13,14-pyrazinyldeisopropyl-dehydroabietate] | 32.7 ± 2.69 µM | 28.1 ± 0.92 µM | 25.3 ± 3.01 µM | > 50 µM |  | weak activity |  |
| COC(=O)[C@]1(C)CCC[C@]2(C)c3cc(Br)c4nc(Cn5ccnn5)c(Cn5ccnn5)nc4c3CCC12 (stereo partly shown) [Compound 4m, Methyl 12-bromo-2′,3′-bis((1H-1,2,3-triazol-1-yl)methyl)-13,14-pyrazinyl-deisopropyl-dehydroabietate] | 4.66 ± 0.42 µM | 3.73 ± 0.62 µM | 2.18 ± 0.37 µM | 18.4 ± 1.73 µM | < 10 µM |  |  |
| COC(=O)[C@]1(C)CCC[C@]2(C)c3cc(Br)c(N)c(N)c3CCC12 (stereo partly shown) [Compound 2] | > 50 µM | > 50 µM | 43.3 ± 3.26 µM | > 50 µM |  |  | mild cytotoxicity |
| COC(=O)[C@]1(C)CCC[C@]2(C)c3cc(Br)c4nc(CN5CCNCC5)c(CN5CCNCC5)nc4c3CCC12 (stereo partly shown) [Compound 4i, Methyl 12-bromo-2′,3′-bis(piperazin-1-ylmethyl)-13,14-pyrazinyldeisopropyl-dehydroabietate] | 4.32 ± 0.64 µM | 5.89 ± 0.56 µM | 5.05 ± 0.72 µM | 21.9 ± 2.7 µM | < 10 µM |  |  |
| COc1cc([C@@H]2c3cc4c(cc3[C@@H](O[C@@H]3O[C@@H]5CO[C@@H](C)O[C@H]5[C@H](O)[C@H]3O)[C@H]3COC(=O)[C@H]23)OCO4)cc(OC)c1O [Etoposide, reference compound] | 0.69 ± 0.18 µM | 0.73 ± 0.07 µM | 0.87 ± 0.16 µM | 8.89 ± 0.38 µM |  |  |  |
| CCN1CCN(Cc2nc3c(Br)cc4c(c3nc2CN2CCN(CC)CC2)CCC2[C@](C)(C(=O)OC)CCC[C@]42C)CC1 (stereo partly shown) [Compound 4k, Methyl 12-bromo-2′,3′-bis((4-ethylpiperazin-1-yl)methyl)-13,14-pyrazinyl-deisopropyl-dehydroabietate] | 26.4 ± 3.73 µM | 38.7 ± 2.87 µM | 13.5 ± 2.21 µM | > 50 µM |  | moderate cytotoxic activity |  |
| COC(=O)[C@]1(C)CCC[C@]2(C)c3cc(Br)c4nc(CN5CCOCC5)c(CN5CCOCC5)nc4c3CCC12 (stereo partly shown) [Compound 4h, Methyl 12-bromo-2′,3′-bis(morpholinomethyl)-13,14-pyrazinyldeisopropyl-dehydroabietate] | 16.3 ± 1.85 µM | 12.3 ± 1.03 µM | 9.67 ± 1.13 µM | 36.6 ± 3.12 µM |  |  |  |
| COC(=O)[C@]1(C)CCC[C@]2(C)c3cc(Br)c4nc(CBr)c(CBr)nc4c3CCC12 (stereo partly shown) [Compound 3] | 45.8 ± 5.28 µM | > 50 µM | 37.7 ± 3.75 µM | > 50 µM |  |  | mild cytotoxicity |
| COC(=O)[C@]1(C)CCC[C@]2(C)c3cc(Br)c4nc(CN5CCCC5)c(CN5CCCC5)nc4c3CCC12 (stereo partly shown) [Compound 4e, Methyl 12-bromo-2′,3′-bis(pyrrolidin-1-ylmethyl)-13,14-pyrazinyldeisopropyl-dehydroabietate] | 18.6 ± 2.37 µM | 20.4 ± 1.51 µM | 12.8 ± 1.26 µM | > 50 µM |  | moderate cytotoxic activity |  |
| COC(=O)[C@]1(C)CCC[C@]2(C)c3cc(Br)c4nc(CN5CCCCCC5)c(CN5CCCCCC5)nc4c3CCC12 (stereo partly shown) [Compound 4g, Methyl 2′,3′-bis(azepan-1-ylmethyl)-12-bromo-13,14-pyrazinyldeisopropyl-dehydroabietate] | 27.9 ± 2.91 µM | > 50 µM | 32 ± 4.21 µM | > 50 µM |  | weak activity |  |
| COC(=O)[C@]1(C)CCC[C@]2(C)c3cc(Br)c4nc(CN(C)C)c(CN(C)C)nc4c3CCC12 (stereo partly shown) [Compound 4a, Methyl 12-bromo-2′,3′-bis((dimethylamino)methyl)-13,14-pyrazinyldeisopropyl-dehydroabietate] | 1.65 ± 0.22 µM | 2.36 ± 0.29 µM | 2.08 ± 0.43 µM | 15.7 ± 0.65 µM |  |  |  |
